Legend:
Assay type in all cases: biochemical
rh LOXL2 = biological target: T1, rh LOXL2 (Homo sapiens, UniProt Q9Y4K0); test: Jump dilution assay, rh LOXL2
T1 sequence (Q9Y4K0 26-774): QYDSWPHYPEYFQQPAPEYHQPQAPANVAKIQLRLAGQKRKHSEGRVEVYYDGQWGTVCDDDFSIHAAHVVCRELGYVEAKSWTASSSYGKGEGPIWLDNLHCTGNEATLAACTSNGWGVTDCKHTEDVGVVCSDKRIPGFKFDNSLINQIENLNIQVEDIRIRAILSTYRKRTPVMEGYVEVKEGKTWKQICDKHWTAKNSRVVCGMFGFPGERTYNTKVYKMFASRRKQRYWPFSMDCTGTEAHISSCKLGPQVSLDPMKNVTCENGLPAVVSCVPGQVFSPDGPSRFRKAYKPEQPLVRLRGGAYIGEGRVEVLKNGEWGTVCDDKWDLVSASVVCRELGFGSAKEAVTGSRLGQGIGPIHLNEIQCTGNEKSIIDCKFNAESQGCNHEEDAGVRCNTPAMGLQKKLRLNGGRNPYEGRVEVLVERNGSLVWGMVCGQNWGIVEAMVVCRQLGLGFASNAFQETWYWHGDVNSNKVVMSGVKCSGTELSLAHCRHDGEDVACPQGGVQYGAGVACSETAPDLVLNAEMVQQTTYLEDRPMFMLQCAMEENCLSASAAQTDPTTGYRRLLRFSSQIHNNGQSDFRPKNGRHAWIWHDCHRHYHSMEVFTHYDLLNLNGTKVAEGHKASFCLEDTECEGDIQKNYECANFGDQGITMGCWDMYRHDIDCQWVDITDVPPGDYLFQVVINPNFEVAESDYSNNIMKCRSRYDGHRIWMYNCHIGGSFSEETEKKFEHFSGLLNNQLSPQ
Description: (§1) FIGURE 1 Characteristics of the activity‐based probe (ABP) PXS‐5878. (A) Chemical structure of PXS‐5878, with functional subunits denoted with different colours. The fluoroallylamine moiety (blue) was designed to interact with the lysine tyrosylquinone (LTQ) co‐factor within the lysyl oxidase active sites. An extended linker (green) was incorporated to provide optimal separation between the reactive functional group and the tag, avoiding unfavourable steric hindrance. Biotin was selected as a tag, with higher sensitivity found to be achieved using a double tag (red), resulting in PXS‐5878 as the preferred ABP. (B) Concentration‐dependent inhibition of recombinant human (rh) lysyl oxidase‐like 1‐4 (LOXL1‐4) and native bovine LOX in a standard Amplex Red assay with 30 min pre‐incubation; n = 3–4 independent experiments, standard error of mean (SEM). Native bovine LOX was used as a surrogate for human LOX as both enzymes have similar pharmacology for fluoroallylamines.[2], [9] (C) Irreversible nature of PXS‐5878 enzyme inhibition confirmed using a jump dilution assay. Enzyme (rh LOXL1, rh LOXL2 or LOXL3) was pre‐incubated with 10 × IC50 of PXS‐5878 for 30 min, then diluted 100x and remaining activity assessed by Amplex Red assay. […] Each value is an average of three experiments. (D) Schematic representation of the assay development to detect lysyl oxidase activity by PXS‐5878 using a direct enzyme‐linked assay with lysyl oxidases as the target analyte. HRP: horseradish peroxidase; TMB: 3,3′,5,5′‐tetramethylbenzidine, a chromogenic substrate. […]
For fluoroallylamine-based inhibitors, replacement of fluorine with hydrogen (leading to the corresponding des-fluoro structures) results in a drop in potency and a switch from irreversible to reversible inhibition. […] (B) For PXS-5878, removal of the fluoro moiety in a simplified analogue results in a significant drop in potency for LOXL2, meaning (ir)reversibility cannot be accurately measured.

rh LOXL1 = biological target: T2, rh LOXL1 (Homo sapiens, UniProt Q08397); test: Jump dilution assay, rh LOXL1; details: 10 × IC50 for 30 min, diluted 100x
T2 sequence (Q08397 96-574): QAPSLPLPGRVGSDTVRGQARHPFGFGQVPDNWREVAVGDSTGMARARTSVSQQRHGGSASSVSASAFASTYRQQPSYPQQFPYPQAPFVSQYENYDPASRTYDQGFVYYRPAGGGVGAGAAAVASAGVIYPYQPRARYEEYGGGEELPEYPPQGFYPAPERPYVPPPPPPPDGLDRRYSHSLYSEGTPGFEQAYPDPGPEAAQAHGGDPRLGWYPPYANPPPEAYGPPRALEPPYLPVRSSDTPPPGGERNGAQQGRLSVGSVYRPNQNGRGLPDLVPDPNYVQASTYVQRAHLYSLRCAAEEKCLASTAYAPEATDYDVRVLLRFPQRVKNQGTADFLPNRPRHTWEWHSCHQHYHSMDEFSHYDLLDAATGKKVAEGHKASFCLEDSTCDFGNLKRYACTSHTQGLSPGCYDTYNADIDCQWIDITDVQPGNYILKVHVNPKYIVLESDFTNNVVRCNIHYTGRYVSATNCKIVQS
Description: as §1, with “experiments.” for “experiments. (D) Schematic representation of the assay development to detect lysyl oxidase activity by PXS‐5878 using a direct enzyme‐linked assay with lysyl oxidases as the target analyte. HRP: horseradish peroxidase; TMB: 3,3′,5,5′‐tetramethylbenzidine, a chromogenic substrate.”

LOXL3 = biological target: T3, LOXL3 (Homo sapiens, UniProt P58215); test: Jump dilution assay, LOXL3; details: 10 × IC50 for 30 min, diluted 100x
T3 sequence (P58215 26-753): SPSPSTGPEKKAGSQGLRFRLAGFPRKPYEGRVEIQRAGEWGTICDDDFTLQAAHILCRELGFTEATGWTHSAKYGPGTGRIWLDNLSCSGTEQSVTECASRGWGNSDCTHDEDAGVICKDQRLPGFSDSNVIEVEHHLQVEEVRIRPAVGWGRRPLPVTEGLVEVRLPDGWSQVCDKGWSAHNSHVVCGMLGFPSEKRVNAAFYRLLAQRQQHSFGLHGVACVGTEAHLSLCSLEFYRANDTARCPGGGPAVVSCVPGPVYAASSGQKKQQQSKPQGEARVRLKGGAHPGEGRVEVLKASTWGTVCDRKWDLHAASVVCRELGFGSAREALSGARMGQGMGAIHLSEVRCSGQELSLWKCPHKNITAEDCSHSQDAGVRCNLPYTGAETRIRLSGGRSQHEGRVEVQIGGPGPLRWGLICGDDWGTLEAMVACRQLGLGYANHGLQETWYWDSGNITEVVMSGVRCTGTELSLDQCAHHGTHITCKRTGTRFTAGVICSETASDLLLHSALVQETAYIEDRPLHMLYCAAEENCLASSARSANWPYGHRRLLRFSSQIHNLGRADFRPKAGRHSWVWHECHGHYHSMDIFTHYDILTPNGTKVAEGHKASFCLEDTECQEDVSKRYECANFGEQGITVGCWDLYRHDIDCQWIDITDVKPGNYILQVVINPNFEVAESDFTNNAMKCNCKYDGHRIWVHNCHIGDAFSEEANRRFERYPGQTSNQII
Description: as §1, with “experiments.” for “experiments. (D) Schematic representation of the assay development to detect lysyl oxidase activity by PXS‐5878 using a direct enzyme‐linked assay with lysyl oxidases as the target analyte. HRP: horseradish peroxidase; TMB: 3,3′,5,5′‐tetramethylbenzidine, a chromogenic substrate.”

| Recovery of enzyme activity after jump dilution (rh LOXL2; rh LOXL2, 10 × IC50 for 30 min, diluted 100x) | Recovery of enzyme activity after jump dilution (rh LOXL1) | Recovery of enzyme activity after jump dilution (LOXL3) | Mode of inhibition (reversible/irreversible) of LOXL2 (rh LOXL2) | SMILES |
| --- | --- | --- | --- | --- |
| Little to no recovery in enzyme activity | Little to no recovery in enzyme activity | Little to no recovery in enzyme activity | – | NC/C=C(\F)CS(=O)(=O)c1cccc(Cn2cc(-c3cc(OCCCc4cn(CCCCC[C@@H]5SC[C@@H]6NC(=O)N[C@@H]65)nn4)cc(OCCCc4cn(CCCCC[C@@H]5SC[C@@H]6NC(=O)N[C@@H]65)nn4)c3)nn2)c1 [PXS‐5878] |
| – | – | – | reversible inhibitor | CC(C)c1c(Cc2ccc(S(C)(=O)=O)nc2)c2ncccc2n1CC=CCN [des‐fluoro‐PXS‐5338] |

— paper PMC8571951, “An activity‐based bioprobe differentiates a novel small molecule inhibitor from a LOXL2 antibody and provides renewed promise for anti‐fibrotic therapeutic strategies” (Clinical and Translational Medicine, 2021)
